The assay deals with distal colon longitudinal muscle (colon specimen). The assay is described as follows: Magnus method, effects of sodium propionate and sodium acetate (Example 5). The note with it: for effect on contractile force (in words) / effect on contraction frequency (in words): Example 5, 10, 30, 100 μL of 0.1 M solution. Also on record: species or system rat. The source says: Seven-week-old SD type male rats were reared and habituated for one week, then sacrificed to excise the colon. Then, about 1 cm of the longitudinal muscle of the colon was isolated from the distal colon (a portion at about 2 to 3 cm to the appendix side from the anus), and cut into two pieces in the longitudinal layer direction (hereinafter, this is also referred to as colon specimen). Each colon specimen was hung with resting tension of 1 g in a Magnus tube filled with Krebs buffer under the condition described below, and a mixed gas of 95% oxygen and 5% carbon dioxide was passed thereto. Then, the colon specimens were equilibrated for about one hour while changing the Krebs buffer every 15 minutes.
Distilled water was added to 6.92 g of NaCl, 0.35 g of KCl, 0.29 g of MgSO4.7H2O, 0.16 g of KH2PO4, 2.1 g of glucose, 0.28 g of CaCl2, and 2.1 g of NaHCO3 to obtain 1 L. • Temperature of Krebs buffer in the Magnus tube: 32° C. • Volume of Krebs buffer introduced into the Magnus tube: 10 mL. Preparation of Test Substances
These were used as test substance aqueous solutions in the assessment test described below. Meanwhile, distilled water was used as control.
The measurement of tension and observation of muscle conditions were carried out for 15 minutes. Tension measurement charts were recorded using a recorder adjusted such that a 5 cm displacement occurs per tension of 1 g on the measurement charts. The resulting measurement charts were used to observe peaks of tension associated with muscle contraction. The contraction frequency (times/minute) was calculated from the number of peaks (times) that appeared per unit time (minute), the contractile force (g) was calculated from the peak height (cm), and numerical values were used for evaluation. With the obtained results, comparisons between the groups were further assessed for significant differences by the Student's t-test.

Setting [1] is: 10 μL of 0.1 mol/L aqueous solution added to 10 mL Krebs buffer.
The mark [2] stands for this setting: 30 μL of 0.1 mol/L aqueous solution added to 10 mL Krebs buffer.
The mark [3] stands for this setting: 100 μL of 0.1 mol/L aqueous solution added to 10 mL Krebs buffer.

Take `CCC(=O)[O-].[Na+]` [SODIUM PROPIONATE, sodium propionate]: the “effect on contractile force (in words)” value is reported as “neither a contractile force-increasing effect nor a contractile force-suppressing effect” and the “effect on contraction frequency (in words)” value was “neither a contraction frequency-enhancing effect nor a contraction frequency-suppressing effect”. Under setting [1], the “CONTRACTILE FORCE” value is listed as 1.15 ± 0.72 g and the “CONTRACTION FREQUENCY” value is 0.47 ± 0.14 TIMES/MINUTE. Also, under setting [2], the “CONTRACTILE FORCE” value was 1.24 ± 0.77 g and the “CONTRACTION FREQUENCY” value is listed as 0.73 ± 0.19 TIMES/MINUTE. In addition, under setting [3], the “CONTRACTILE FORCE” value turned out to be 1.20 ± 0.68 g and the “CONTRACTION FREQUENCY” value is reported as 0.73 ± 0.38 TIMES/MINUTE.

On to `CC(=O)[O-].[Na+]` [SODIUM ACETATE, sodium acetate], for which the “effect on contractile force (in words)” value is reported as “neither a contractile force-increasing effect nor a contractile force-suppressing effect” and the “effect on contraction frequency (in words)” value was “neither a contraction frequency-enhancing effect nor a contraction frequency-suppressing effect”.

The values are drawn from patent publication US9675647B2, “Prophylactic and/or therapeutic agent for functional gastrointestinal disorders” (MEIJI CO., LTD., priority 2007, dated 2017).
